Drawing on ChEMBL document CHEMBL5584254, “Identification of N-(((1S,3R,5S)-adamantan-1-yl)methyl)-3-((4-chlorophenyl)sulfonyl)benzenesulfonamide as novel Nav1.8 inhibitor with analgesic profile” (Bioorg Med Chem Lett, 2024), this text covers Retention time, Activity and inhibition for 17 compounds.

One series relates to HEK293. Briefly: Binding affinity to Nav1.8 (unknown origin) expressed in HEK293 cells assessed as retention time by cell membrane chromatography analysis. Format: cell membranes. The following applies: Homo sapiens.
Series [1] has as its system Mus musculus. The experiment in a line: Analgesic activity in CFA-induced inflammatory pain mouse model assessed as increase in mechanical pain threshold at 10 mM, ip measured upto 5 hrs by von frey test. It is filed as functional, organism-based.
A further series is filed under the species Homo sapiens. The experiment in a line: Inhibition of Nav1.8 (unknown origin) at 10 uM under resting state by whole-cell patch clamp analysis relative to control. (In patch-clamp work, channel activity is measured electrically.)
In series [2] the test system is Mus musculus. Briefly: Analgesic activity in CFA-induced inflammatory pain mouse model assessed as increase in mechanical pain threshold at 10 mM, ip measured within 5 hrs by von frey test. Format: functional, organism-based.
The test system of series [3] is Mus musculus. The experiment in a line: Analgesic activity in CFA-induced inflammatory pain mouse model assessed as inhibition of mechanical hyperalgesia by measuring delta AUC at 10 mM, ip by von frey test. Format: functional, organism-based.
Series [4] has as its system Mus musculus. Briefly: Analgesic activity in CFA-induced inflammatory pain mouse model assessed as effect on intensity of pain relief by measuring delta AUC at 10 mM, ip by von frey test. Format: functional, organism-based.
Series [5] has as its system Mus musculus. Briefly: Analgesic activity in CFA-induced inflammatory pain mouse model assessed as effect on duration of pain relief by measuring delta AUC at 10 mM, ip by von frey test. It is filed as functional, organism-based.
The next series relates to Nav1.8 (SCN10A). The experiment in a line: Inhibition of Nav1.8 (unknown origin) at 10 uM under half […] state by whole-cell patch clamp analysis relative to control. The settings on record: human.

Each structure is given as a SMILES string. The source made the active and inactive calls.

For `Cc1ccc(CS(=O)(=O)c2cn(CC(=O)Nc3ccc(F)cc3F)c3ccccc23)cc1`, the Retention time in the series with HEK293 is 14.7 min. Also, in the series on Mus musculus [1], the outcome was Active.

For the compound `COc1cccc(C2C3=C(CC4=C2C(=O)CC(C)(C)C4)CC(C)(C)CC3=O)c1OCC(=O)O`, in the series with HEK293, the Retention time amounted to 1.2 min.

A word on the inhibition: it is the percentage by which the read-out fell short of the control. Low readings indicate a weak effect, high ones a strong effect. `O=S(=O)(NCC12CC3CC(CC(C3)C1)C2)c1cccc(S(=O)(=O)c2ccc(Cl)cc2)c1`: in the series with HEK293, the Retention time came to 56 min. The compound further gave an inhibition in the series listed under Homo sapiens of 14.3%. In addition, the result in the series on Mus musculus [2], in the series with Mus musculus [3], with Mus musculus [4], in the series on Mus musculus [1] and in the series with Mus musculus [5] was Active. Moreover, in the series on Nav1.8 (SCN10A), at 10 µM the inhibition was 63.8%.

On to `O=C(Cc1ccccc1)N/N=C/c1c2ccccc2cc2ccccc12`, for which the Retention time in the series with HEK293 turned out to be 0.4 min.

Turning to `CC1Oc2ccccc2CC1/C=C1/Oc2cc(OC(=O)c3ccc4c(c3)OCO4)ccc2C1=O` (stereo not given), the Retention time with HEK293 was found to be 0.4 min.

Consider `O=C(Cc1cccc2ccccc12)NN1C(=O)C2C3C=CC(C3)C2C1=O` (stereo not given), for which, in the series with HEK293, the Retention time is 1.9 min.

With `COc1ccc(/C=N/NC(=O)NC23CC4CC(C2)CC(c2ccc(C)cc2)(C4)C3)cc1`, in the series on HEK293, the Retention time was found to be 0.4 min.

For the compound `Cc1cc2oc(=O)cc(C)c2c(O)c1C1=NNC(c2ccc3c(c2)OCO3)C1` (stereo not given), in the series with HEK293, the Retention time was found to be 0.4 min.

As to `CN1c2ccc(F)cc2C(C)(C)C12C=Cc1cc([N+](=O)[O-])ccc1S2` (stereo not given), the Retention time with HEK293 is 0.4 min.

Consider `COc1cc(NC(=O)c2ccc(-c3ccc(Cl)cc3)o2)cc(OC)c1`, for which the Retention time with HEK293 was found to be 120 min. In addition, the inhibition in the series listed under Homo sapiens is 62.1%.

For the compound `Cc1cc(OCC(=O)Nc2ccc(C(C)(C)C)cc2)c2c3c(c(=O)oc2c1)CCC3`, the Retention time in the series with HEK293 came to 0.4 min.

Take `Cc1ccccc1C1CC(=O)C2=C(C1)NC(=O)C(CC(=O)Nc1cccc(Cl)c1C)C2` (stereo not given): in the series on HEK293, the Retention time was found to be 5.76 min. This compound also gave an inhibition in the series listed under Homo sapiens of 6.49%. Moreover, the result in the series with Mus musculus [2], in the series on Mus musculus [3], in the series with Mus musculus [4], in the series on Mus musculus [1] and in the series on Mus musculus [5] was Active. Also, in the series with Nav1.8 (SCN10A), 10 µM produced 11.1% inhibition.

On to `Cc1ccc(C)c(Cn2cccc2CNC(=O)NC23CC4CC(CC(C4)C2)C3)c1`, for which the Retention time in the series on HEK293 turned out to be 0.4 min.

As for `CCC1(C)Oc2ccc(NS(=O)(=O)c3ccc4c(c3)Cc3ccccc3-4)cc2O1` (stereo not given), in the series on HEK293, the Retention time amounted to 0.4 min.

As to `Cc1cc(F)ccc1Oc1cc(C(F)(F)F)ccc1C(=O)Nc1cc[nH]c(=O)c1`, the Retention time in the series on HEK293 worked out at 8.56 min. Also, the result in the series with Mus musculus [2] was inactive. The outcome with Mus musculus [1] was Active.

`O=S(=O)(NCC12CC3CC(CC(C3)C1)C2)c1ccc(Cl)c2ccccc12`: the Retention time in the series on HEK293 amounted to 0.4 min.

Take `O=[N+]([O-])c1cccc(C2Oc3ccccc3C3CC(c4ccc(F)cc4)=NN32)c1` (stereo not given): the Retention time in the series with HEK293 was 0.4 min.
